#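 Test compounds were applied to cells in 96-well plates for 48 hours at 5 doses. GI50: concentration for 50% inhibition of growth. TGI denotes the concentration required for complete inhibition of growth.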
# Key:
# Assay in all cases: inhibition of tumour cell growth, NCI panel, 48 h
# A498 renal = test system: A498 renal
# DU-145 prostate = test system: DU-145 prostate
# HOP-92 NSCLC = test system: HOP-92 NSCLC
# MOLT-4 leukemia = test system: MOLT-4 leukemia
# NCI-H23 lung = test system: NCI-H23 lung
# SF-295 CNS = test system: SF-295 CNS
# SK-MEL-2 melanoma = test system: SK-MEL-2 melanoma
# SNB-75 CNS = test system: SNB-75 CNS
# SR leukemia = test system: SR leukemia
# SW-620 colon = test system: SW-620 colon
Structure (SMILES),GI50 (A498 renal) [µM],TGI (A498 renal) [µM],GI50 (DU-145 prostate) [µM],TGI (DU-145 prostate) [µM],GI50 (HOP-92 NSCLC) [µM],TGI (HOP-92 NSCLC) [µM],GI50 (MOLT-4 leukemia) [µM],TGI (MOLT-4 leukemia) [µM],GI50 (NCI-H23 lung) [µM],TGI (NCI-H23 lung) [µM],GI50 (SF-295 CNS) [µM],TGI (SF-295 CNS) [µM],GI50 (SK-MEL-2 melanoma) [µM],TGI (SK-MEL-2 melanoma) [µM],GI50 (SNB-75 CNS) [µM],TGI (SNB-75 CNS) [µM],GI50 (SR leukemia) [µM],TGI (SR leukemia) [µM],GI50 (SW-620 colon) [µM],TGI (SW-620 colon) [µM]
O=[N+]([O-])c1cc[n+]([O-])c2ccccc12,0.176,0.471,0.0392,0.173,0.13,0.758,1.9,6.35,0.328,1.56,0.2,0.627,0.169,0.377,0.176,0.465,0.0245,> 100,0.106,0.56
C1=C(c2ccccc2)C(N2CCOCC2)Oc2ccccc21 (stereo unspecified),,92.3,,> 100,,> 100,,> 100,,> 100,,> 100,,,,> 100,,> 100,,> 100
O=c1c2c([nH]c3nccn13)CCC2,,8.91,,> 10,,> 10,,> 10,,> 10,,> 10,,> 10,,> 10,,> 10,,> 10
Fc1ccc(-c2ncn(C3CCNCC3)c2-c2ccnc(Oc3ccc4c(c3)OCO4)n2)cc1,16,> 25,> 25,> 25,5.21,> 25,> 25,> 25,> 25,> 25,> 20.1,> 25,> 25,> 25,> 16.1,> 25,13.6,> 25,> 25,> 25
COC(=O)c1c2c(c(C)[n+]([O-])c1C)C(=O)C=C(NCc1ccccc1)C2=O,1.57,2.96,1.35,2.68,2.17,4.37,0.619,2.83,0.632,2.46,1.11,2.35,1.25,2.82,1.82,3.22,0.895,5.66,0.375,1.54
COC(C)(C)[C@@H](O)[C@H](O)C[C@H](C)C1=C2CC[C@@H]3[C@@]4(C)CC[C@@H](OC(C)=O)C(C)(C)[C@@H]4C[C@@H](OC4OC(COC(C)=O)C(O)C(O)C4O)[C@@]3(C)[C@]2(C)CC1 (stereo partly specified),14.2,27.6,15,28.5,13,25.8,5.07,23.9,14.4,27.4,11.6,24.1,13.2,26,,21.2,3.06,14.3,15.7,30.1
CN1C(=O)c2ccc3ccccc3c2C1=O,,> 100,,> 100,,> 100,,> 100,,> 100,,> 100,,> 100,,> 100,,> 100,,> 100
COc1ccc([C@H](CC(=O)O)N2CCN(CCCc3ccc4c(n3)NCCC4)C2=O)cn1,0.0116,0.0633,0.951,12.5,0.0348,0.159,> 100,> 100,0.892,4.07,47.6,> 100,0.0331,0.237,0.0112,0.0278,> 100,> 100,,> 100
CC1=CC2C(C(O)CC3(C)C2CC(C)C32OCOC23COCO3)C2(C)C/C(=C/O)C(=O)C=C12 (stereo unspecified),2.83,14.8,2.57,5.81,1.78,3.45,1.97,4.9,2,3.83,2.22,5.34,1.97,3.8,1.63,3.03,2.11,4.45,1.65,3.32
Cc1ccc(/C=C(\C#N)c2cc3ccccc3n2C)cc1,0.217,0.808,0.469,> 100,1.13,> 100,0.467,> 100,0.541,> 100,0.285,1.46,,,,,0.264,> 100,0.361,> 100
CN(C)Cc1ccc(-c2cc3onc(-c4ccccc4)c3c(=O)n2C)cc1,,56.9,,85.3,,87.6,,49.2,,> 100,,46.5,,78.8,,,,34,,65.1
COc1cc2c3c(n(CCCN)c(=O)c2cc1OC)-c1ccc([N+](=O)[O-])cc1C3=O,17.4,34.1,2.11,10.6,10.5,30.5,0.434,16.2,5.13,25.1,0.912,17.9,0.0173,5.19,16.3,34.7,0.0731,10.4,2.12,19.1
Oc1c(C(Nc2ccccc2Br)c2ccccc2)ccc2cccnc12 (stereo unspecified),2.04,25.6,4.81,> 100,6.51,75.9,1.68,7.56,3.96,26.9,1.65,47.3,,,2.82,48.6,0.715,> 100,2.63,25.3
Cc1ccc(/C=C/c2c(C(=O)/C=C/c3ccccc3)c(C)nc3ccccc23)cc1,1.75,3.23,1.65,3.15,1.52,4.34,0.708,4.29,1.64,3.78,2.2,5.02,,,,,1.18,5.67,1.58,4.61
